Key:
A-10 smooth muscle cells = assay: AVP-induced [3H]-arachidonic acid liberation from A-10 cells; type: cell-based, rat; settings: 1 μM AVP, FIG. 5
Method: Quantification of [^3H]-Arachidonic Acid Liberation from A-10 Phospholipids—Rat aortic smooth muscle A-10 cells, cultured in 60 mm dishes (2.5×10^5 cells/dish), were radiolabeled with 0.5 μCi [^3H]-arachidonic acid per dish as previously described (29). Cells were washed once with DMEM containing 0.25% fatty acid free bovine serum albumin followed by two washes with DMEM alone. Cells were then incubated with the indicated concentrations of (R)-, (S)-, rac-BEL, or ethanol vehicle (0.1% final concentration) in DMEM for 20 min. This media was removed and the cells were then incubated with DMEM containing 10% heat-inactivated fetal bovine serum in the absence or presence of 1 μM AVP. In some tests, PMA (1 μM) or DOG (10 μM) was added to the medium containing AVP. After 5 mm, 1 ml of this medium was removed, lipids were extracted into 2 ml of chloroform/methanol/acetic acid (25:24:1 v/v) (38), and the remaining cells were scraped into 1 ml of deionized water prior to lipid extraction as described above. The chloroform layer was evaporated under nitrogen and the extracted lipids were separated by thin layer chromatography (petroleum ether/ethyl ether/glacial acetic acid 70:30:1). Regions containing fatty acids and phospholipids were scraped into vials and radioactivity was quantified by liquid scintillation spectrometry.
A-10 cells (2.5×10^5 cells/dish) were radiolabeled with [^3H]-arachidonic acid (0.5 μCi/dish) for 20 hrs. After washing to remove unincorporated [^3H]-arachidonic acid, cells were then incubated with either 1 μM or 5 μM (R)-BEL, (S)-BEL, rac-BEL, or ethanol vehicle (0.1%) in DMEM for 20 mm. This media was removed and the cells were then incubated with 3 ml of DMEM containing 10% heat-inactivated fetal bovine serum with or without 1 μM AVP. After 5 min, 1 ml of this medium was removed and lipids were extracted into 2 ml of chloroform/methanol/acetic acid (25:24:1). The remaining cells were scraped into 1 ml of deionized water and total lipids were extracted as described above. The chloroform layer was evaporated under nitrogen and the extracted lipids were separated by TLC. Regions containing fatty acids and phospholipids were scraped into vials and radioactivity was quantified by liquid scintillation spectrometry. Results are representative of four separate tests.
A-10 cells were radiolabeled with [^3H]-arachidonic acid, washed, and pre-incubated with 5 μM (S)-BEL or ethanol vehicle alone for 15 min as described in FIG. 5. DMEM media containing 10% heat-inactivated fetal bovine serum with or without 1 μM AVP was then added to the cells. After 5 min at 37° C., [^3H]-arachidonic acid released into the media and remaining within the cells (free and incorporated into phospholipids) was extracted into chloroform, separated by TLC, and quantified by liquid scintillation spectrometry as described in “Experimental Procedures”. Results are representative of three separate tests.

[1] = test system: membrane-bound phosphatidate phosphohydrolase (PAP-2); assay: Membrane-bound phosphatidate phosphohydrolase activity of A-10 cell membrane fraction; type: biochemical, rat; settings: concentrations up to 200 μM BEL; FIG. 6A
Method: Measurement of Cytosolic and Membrane-bound Phosphatidate Phosphohydrolase Activities—A-10 cells were grown to confluency, washed twice in ice-cold phosphate-buffered saline, and harvested in lysis buffer (50 mM Tris-HCl, pH 7.4 containing 0.25 M sucrose and 0.2 mM DTT). After brief sonication utilizing a Vibra-Cell VC4O sonicator (5×1 s pulses at 30% power), the lysed cell suspension was centrifuged at 100,000×g for 1 hr to separate cytosolic and membrane fractions. In some tests, A-10 cells were washed and pretreated with BEL or ethanol vehicle (as described above for tests examining [^3H]-AA liberation) before isolation of cell homogenates. […] Reactions were terminated with 900 μL of 5% acetic acid and extracted into chloroform by the method of Bligh and Dyer (38) prior to separating dipaliitoyl glycerol by TLC utilizing chloroform: methanol: water (65:35:2) as the mobile phase prior to quantification by scintillation spectrometry.
A-10 cells plated on 100 mm dishes were washed 2× in ice-cold PBS and harvested in lysis buffer (50 mM Tris-HCl, pH 7.4 containing 0.25 M sucrose and 0.2 mM DTT). […] In panel B, intact A-10 cells were washed and pretreated with BEL or ethanol vehicle (as described in FIG. 5) before isolation of the cell homogenate and quantification of phosphatidate phosphohydrolase activity as described above. […]

P388D1 macrophages = settings: up to 5 μM BEL; (15); cited from earlier work

Row | Structure (SMILES) | AVP-induced increase in non-esterified [3H]-arachidonic acid (in words) (A-10 smooth muscle cells; 1 and 5 μM inhibitor) | effect on membrane-bound (PAP-2) phosphatidate phosphohydrolase [1] | levels of diacylglycerol or phosphatidic acid formed upon stimulation with zymosan (P388D1 macrophages) | inhibition of AVP-induced AA release (A-10 smooth muscle cells; 5 μM inhibitor, 20 min pretreatment)
1 | O=C1OC(=CBr)CCC1c1cccc2ccccc12 (racemic) [rac-BEL, Racemic (E)-6-(bromomethylene)-3-(1-naphthalenyl)-2H-tetrahydropyran-2-one] | significantly reduced | lack of any effect | does not significantly effect | –
2 | O=C1O/C(=C/Br)CC[C@@H]1c1cccc2ccccc12 [(R)-BEL, (R)(E)-6-(bromomethylene)-3-(1-naphthalenyl)-2H-tetrahydropyran-2-one] | – | – | – | about 10%

Source: US7741344B2, “Process for preparing purified S-BEL and R-BEL and compositions thereof” (Washington University in St. Louis, priority 2002, dated 2010)
